The test system of the assay is Mycosphaerella graminicola; Anamorph: Septoria tritici; Bayer Code SEPTTR. Kind of assay: Leaf blotch of wheat, foliar fungicide treatment, one day protectant (1DP) or three day curative (3DC). It is filed as in vivo, Septoria tritici on wheat plants (variety Yuma). To be noted: Zymoseptoria tritici; for pest or weed control at 50 ppm / pest or weed control at 200 ppm: % disease control rating.

[1] abbreviates: 24 h, one day protectant, 25 ppm, rating of percent disease control, read-out: SETTTR 1DP 25 ppm.
Setting [2] is: 24 h, one day protectant, rating of percent disease control, read-out: SEPTTR 1DP 100 ppm.
Where [3] appears, read: 72 h, three day curative, 25 ppm, rating of percent disease control, read-out: SEPTTR 3DC 25 ppm.
The mark [4] stands for this setting: 72 h, three day curative, rating of percent disease control, read-out: SEPTTR 3DC 100 ppm.
Where [5] appears, read: 24 h, one day protectant (1DP), 25 ppm, rating of percent disease control, read-out: SETTTR 1DP 25 ppm.
Where [6] appears, read: 24 h, one day protectant (1DP), rating of percent disease control, read-out: SEPTTR 1DP 100 ppm.
Setting [7] is: 72 h, three day curative (3DC), 25 ppm, rating of percent disease control, read-out: SEPTTR 3DC 25 ppm.
[8] abbreviates: 72 h, three day curative (3DC), rating of percent disease control, read-out: SEPTTR 3DC 100 ppm.
Setting [9] is: 24 h, one day protectant (1DP), 25 ppm (first 1DP column), percent control rating, read-out: SETTTR 1DP 25 ppm.
[10] abbreviates: 24 h, one day protectant (1DP), 25 ppm as printed (second 1DP column), percent control rating, read-out: SETTTR 1DP 25 ppm.
The mark [11] stands for this setting: 72 h, three day curative (3DC), 25 ppm, percent control rating, read-out: SEPTTR 3DC 25 ppm.
Where [12] appears, read: 72 h, three day curative (3DC), percent control rating, read-out: SEPTTR 3DC 100 ppm.
[13] abbreviates: 24 h, one day protectant (1DP), 25 ppm, percent disease control rating, read-out: SETTTR 1DP 25 ppm.
The mark [14] stands for this setting: 24 h, one day protectant (1DP), percent disease control rating, read-out: SEPTTR 1DP 100 ppm.
Where [15] appears, read: 72 h, three day curative (3DC), 25 ppm, percent disease control rating, read-out: SEPTTR 3DC 25 ppm.
[16] abbreviates: 72 h, three day curative (3DC), percent disease control rating, read-out: SEPTTR 3DC 100 ppm.

Read-outs that look alike come from different tables or passages of the source.

For the molecule `Nc1nc(OCc2ccc(CO)cc2)ncc1F` [Compound 637], the pest or weed control at 25 ppm lay within 76 to 100% under setting [1] and 76 to 100% under setting [3]. Further, the pest or weed control at 100 ppm by setting is: under setting [2], 76 to 100%; under setting [4], 76 to 100%.
Turning to `COc1cccc(COc2ncc(F)c(NNC3CCCCC3)n2)c1` [Compound 294], the pest or weed control at 25 ppm was in the range of 0 to 25% under setting [5] and 0 to 25% under setting [7]. Also, the pest or weed control at 100 ppm reads like this: under setting [6], 76 to 100%; under setting [8], 76 to 100%.
For the molecule `CCC(Oc1ncc(F)c(N)n1)c1ccc(F)cc1` (stereo not shown) [Compound 513], the pest or weed control at 25 ppm runs as follows: under setting [5], 76 to 100%; under setting [7], 76 to 100%. The pest or weed control at 100 ppm lay within 76 to 100% under setting [6] and 76 to 100% under setting [8].
Regarding `N#Cc1cccc(COc2ncc(F)c(NC(=O)Nc3ccccc3)n2)c1` [Compound 555], the pest or weed control at 25 ppm under setting [1] was 0 to 25% and the pest or weed control at 25 ppm under setting [3] fell in the range of 0 to 25%. For the same molecule, the pest or weed control at 100 ppm under setting [2] was in the range of 0 to 25% and the pest or weed control at 100 ppm under setting [4] was 0 to 25%.
As to `COc1ccc(CCCOc2ncc(F)c(N)n2)cc1` [Compound 462], the pest or weed control at 25 ppm is, setting by setting: under setting [5], 51 to 75%; under setting [7], 51 to 75%. Moreover, the pest or weed control at 100 ppm by setting is: under setting [6], 76 to 100%; under setting [8], 26 to 50%.
On to `CC(Oc1ncc(F)c(N)n1)c1cccc([N+](=O)[O-])c1` (stereo not shown) [Compound 576], for which the pest or weed control at 25 ppm runs as follows: under setting [1], 26 to 50%; under setting [3], 26 to 50%. For the same molecule, the pest or weed control at 100 ppm lay within 76 to 100% under setting [2] and 76 to 100% under setting [4].
For the molecule `CNc1nc(OCc2ccc(F)cc2)ncc1F` [Compound 784], the pest or weed control at 25 ppm reads like this: under setting [5], 0 to 25%; under setting [7], 0 to 25%. For the same molecule, the pest or weed control at 100 ppm is 0 to 25% under setting [6] and 0 to 25% under setting [8].
Turning to `COc1ncc(F)c(N(O)C(C)C)n1` [Compound 1067], the pest or weed control at 25 ppm lay in the range of 0 to 25% under setting [9], 0 to 25% under setting [10] and 0 to 25% under setting [11]. In addition, the pest or weed control at 100 ppm under setting [12] fell in the range of 0 to 25%.
In the case of `O=C(Cc1ccccc1)Nc1nc(OCc2ccc(F)cc2)ncc1F` [Compound 394], the pest or weed control at 25 ppm is 76 to 100% under setting [5] and 76 to 100% under setting [7]. Moreover, the pest or weed control at 100 ppm lay within 76 to 100% under setting [6] and 76 to 100% under setting [8].
On to `CC1(COc2ncc(F)c(N)n2)COC1` [Compound 433], for which the pest or weed control at 25 ppm was 0 to 25% under setting [5] and 0 to 25% under setting [7]. The pest or weed control at 100 ppm under setting [6] lay within 0 to 25% and the pest or weed control at 100 ppm under setting [8] was 0 to 25%.
For the setting “24 h, one day protectant”, `Fc1ccccc1CNc1nc(OCc2ccccc2Cl)ncc1F` [Compound 893] returned a pest or weed control at 50 ppm of 76 to 100% and a pest or weed control at 200 ppm of 76 to 100%.
With `CN(C)/C=N/c1nc(OC(=O)Oc2ccccc2)ncc1F` [Compound 669], the pest or weed control at 25 ppm is 76 to 100% under setting [1] and 76 to 100% under setting [3]. For the same molecule, the pest or weed control at 100 ppm under setting [2] fell in the range of 76 to 100% and the pest or weed control at 100 ppm under setting [4] was in the range of 76 to 100%.
On to `Nc1nc(OCc2ccc(Cl)cc2Cl)ncc1F` [Compound 540], for which the pest or weed control at 25 ppm under setting [5] was 76 to 100% and the pest or weed control at 25 ppm under setting [7] was in the range of 76 to 100%. Further, the pest or weed control at 100 ppm was 76 to 100% under setting [6] and 76 to 100% under setting [8].
`Fc1cnc(OCc2ccc(C(F)(F)F)cc2)nc1NC1CC1` [Compound 819] registered a pest or weed control at 200 ppm (24 h, one day protectant) of 76 to 100%.
Same read-out and setting: the value for `Fc1cnc(OCc2cccc(Cl)c2)nc1NCc1cccs1` [Compound 912] was 76 to 100%.
With `Cc1ccc(COc2ncc(F)c(NC(=S)Nc3ccccc3F)n2)cc1` [Compound 778], the pest or weed control at 25 ppm lay in the range of 76 to 100% under setting [5] and 76 to 100% under setting [7]. Besides, the pest or weed control at 100 ppm runs as follows: under setting [6], 76 to 100%; under setting [8], 76 to 100%.
Under “24 h, one day protectant”, `Fc1ccccc1CNc1nc(OCc2c(Cl)cccc2Cl)ncc1F` [Compound 943] came in with a pest or weed control at 50 ppm of 51 to 75% and a pest or weed control at 200 ppm of 76 to 100%.
As to `COc1ccccc1COc1ncc(F)c(NC(=O)OCc2ccccc2)n1` [Compound 415], the pest or weed control at 25 ppm by setting is: under setting [5], 51 to 75%; under setting [7], 76 to 100%. Also, the pest or weed control at 100 ppm by setting is: under setting [6], 76 to 100%; under setting [8], 76 to 100%.
`N#Cc1cccc(COc2ncc(F)c(NC(=S)NCc3ccccc3F)n2)c1` [Compound 504]: the pest or weed control at 25 ppm lay within 0 to 25% under setting [5] and 0 to 25% under setting [7]. Further, the pest or weed control at 100 ppm is, setting by setting: under setting [6], 51 to 75%; under setting [8], 0 to 25%.
In the case of `Cc1ccccc1C(C)Oc1ncc(F)c(/N=C/N(C)C)n1` (stereo not shown) [Compound 643], the pest or weed control at 25 ppm under setting [1] lay within 76 to 100% and the pest or weed control at 25 ppm under setting [3] fell in the range of 76 to 100%. Moreover, the pest or weed control at 100 ppm is 76 to 100% under setting [2] and 76 to 100% under setting [4].
With `COc1cccc(COc2ncc(F)c(N/N=C\c3ncc[nH]3)n2)c1` [Compound 557], the pest or weed control at 25 ppm is, setting by setting: under setting [1], 26 to 50%; under setting [3], 0 to 25%. Besides, the pest or weed control at 100 ppm was 0 to 25% under setting [2] and 0 to 25% under setting [4].
As for `Fc1cccc(COc2ncc(F)c(NC(=S)Nc3ccccc3F)n2)c1` [Compound 266], the pest or weed control at 25 ppm lay within 76 to 100% under setting [5] and 0 to 25% under setting [7]. Also, the pest or weed control at 100 ppm reads like this: under setting [6], 76 to 100%; under setting [8], 76 to 100%.
As to `Fc1ccc(COc2ncc(F)c(NNc3nc4ccccc4s3)n2)cc1` [Compound 1044], the pest or weed control at 25 ppm reads like this: under setting [9], 0 to 25%; under setting [10], 0 to 25%; under setting [11], 0 to 25%. In addition, the pest or weed control at 100 ppm under setting [12] was in the range of 0 to 25%.
With `COc1cccc(COc2ncc(F)c(NC(=O)OCc3ccccc3)n2)c1` [Compound 531], the pest or weed control at 25 ppm lay within 76 to 100% under setting [5] and 76 to 100% under setting [7]. For the same molecule, the pest or weed control at 100 ppm runs as follows: under setting [6], 76 to 100%; under setting [8], 76 to 100%.
On to `CCC(/C=N/Nc1nc(OC)ncc1F)CC` [Compound 1021], for which the pest or weed control at 25 ppm under setting [9] lay within 0 to 25%, the pest or weed control at 25 ppm under setting [10] was 26 to 50% and the pest or weed control at 25 ppm under setting [11] was 26 to 50%. Under setting [12], the pest or weed control at 100 ppm lay in the range of 26 to 50%.
For the setting “24 h, one day protectant”, `Fc1cnc(OCc2ccc(Cl)cc2)nc1NCC(F)(F)F` [Compound 885] had a pest or weed control at 50 ppm of 26 to 50% and a pest or weed control at 200 ppm of 51 to 75%.
With `COc1ccccc1COc1ncc(F)c(NC(=S)NCc2ccccc2F)n1` [Compound 797], the pest or weed control at 25 ppm was 51 to 75% under setting [5] and 26 to 50% under setting [7]. The pest or weed control at 100 ppm runs as follows: under setting [6], 76 to 100%; under setting [8], 76 to 100%.
For the molecule `COc1ccc(COc2ncc(F)c(NC(=S)NCc3ccccc3F)n2)cc1F` [Compound 75], the pest or weed control at 25 ppm lay within 26 to 50% under setting [13] and 76 to 100% under setting [15]. Also, the pest or weed control at 100 ppm under setting [14] lay within 76 to 100% and the pest or weed control at 100 ppm under setting [16] was 76 to 100%.
As for `Cc1ccc(COc2ncc(F)c(NNC3CCCCC3)n2)cc1` [Compound 244], the pest or weed control at 25 ppm under setting [5] fell in the range of 0 to 25% and the pest or weed control at 25 ppm under setting [7] fell in the range of 0 to 25%. For the same molecule, the pest or weed control at 100 ppm under setting [6] lay within 76 to 100% and the pest or weed control at 100 ppm under setting [8] fell in the range of 76 to 100%.
For the molecule `Nc1nc(OCc2ccsc2)ncc1F` [Compound 508], the pest or weed control at 25 ppm is, setting by setting: under setting [5], 76 to 100%; under setting [7], 76 to 100%. Also, the pest or weed control at 100 ppm reads like this: under setting [6], 76 to 100%; under setting [8], 76 to 100%.
For `COc1cccc(COc2ncc(F)c(N(N)C3CCCCC3)n2)c1` [Compound 111], the pest or weed control at 25 ppm runs as follows: under setting [13], 0 to 25%; under setting [15], 0 to 25%. Moreover, the pest or weed control at 100 ppm under setting [14] is 0 to 25% and the pest or weed control at 100 ppm under setting [16] was in the range of 0 to 25%.
As to `O=S(=O)(Nc1nc(O)ncc1F)C1CC1` [Compound 1104], the pest or weed control at 25 ppm was in the range of 0 to 25% under setting [9], 0 to 25% under setting [10] and 0 to 25% under setting [11]. Besides, the pest or weed control at 100 ppm under setting [12] was in the range of 0 to 25%.
In the case of `COc1cccc(C(=O)Oc2ncc(F)c(/N=C/N(C)C)n2)c1` [Compound 767], the pest or weed control at 25 ppm under setting [5] was 76 to 100% and the pest or weed control at 25 ppm under setting [7] is 76 to 100%. For the same molecule, the pest or weed control at 100 ppm runs as follows: under setting [6], 76 to 100%; under setting [8], 76 to 100%.
Regarding `CCOCNc1nc(OCc2ccc(C)cc2)ncc1F` [Compound 675], the pest or weed control at 25 ppm under setting [1] lay within 76 to 100% and the pest or weed control at 25 ppm under setting [3] was 76 to 100%. For the same molecule, the pest or weed control at 100 ppm is, setting by setting: under setting [2], 76 to 100%; under setting [4], 76 to 100%.

The values are drawn from patent publication US9204653B2, “5-fluoro pyrimidine derivatives” (DOW AGROSCIENCES LLC, priority 2008, dated 2015).
